Results as given in patent US20260174875A1 (Novo Nordisk A/S, priority 2023, published 2026).
Numbered stars: 1 amine (or outer) side, 2 acyl side, 3 side chain; on linkers, the order of the positions; unused ones are H or OH. Square brackets hold non-standard residues; d marks the D form. Side chains are listed from the residue outwards. * marks the point of attachment. C18 diacid = O=C(O)CCCCCCCCCCCCCCCCC(=O)*; γGlu = O=C(O)[C@H](CCC(=O)[*:2])N[*:1]; AEEA = NCCOCCOCC(=O)O; Aib = CC(C)(N)C(=O)O

target: T1, human GLP-1 receptor (hGLP-1R) (Homo sapiens, UniProt P43220); assay: GLP-1 receptor assay, method A (CRE-luciferase reporter, BHK cells); type: cell-based; details: hGLP-1R Potency, 1% HSA, EC50, method A, in the presence of 1% HSA
T1 construct: expressed in transfected cells
T1 sequence (P43220 24-463): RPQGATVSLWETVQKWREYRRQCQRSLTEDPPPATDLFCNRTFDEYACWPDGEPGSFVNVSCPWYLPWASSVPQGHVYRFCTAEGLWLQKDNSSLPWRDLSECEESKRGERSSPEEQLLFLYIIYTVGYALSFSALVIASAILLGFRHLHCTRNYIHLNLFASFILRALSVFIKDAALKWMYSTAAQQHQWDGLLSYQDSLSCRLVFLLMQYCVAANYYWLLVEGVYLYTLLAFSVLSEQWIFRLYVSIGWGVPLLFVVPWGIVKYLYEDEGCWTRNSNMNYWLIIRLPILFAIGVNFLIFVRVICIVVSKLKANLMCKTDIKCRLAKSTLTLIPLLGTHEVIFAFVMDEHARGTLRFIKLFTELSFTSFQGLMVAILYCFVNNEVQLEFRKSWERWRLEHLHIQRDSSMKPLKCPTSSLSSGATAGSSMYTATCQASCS
Procedure: (§1) To assess how the activation of the receptors is potentially influenced by the presence of human serum albumin (HSA), the in vitro assays were performed in the absence of HSA and presence of 1% (w/v) HSA.
Cells at approximately 80-90% confluence were washed once in PBS (Gibco 14190-094) and loosened from the cell flasks with Versene (Gibco, 15040-033). […] Cells were aliquoted and stored at −180° C. until use.
(§2) The assay buffer consisted of DMEM without phenol red (Gibco, 11880-028) supplemented with 1× GlutaMAX (Gibco, 35050-038), 10 mM HEPES (Gibco, 15630-056), 1% (w/v) ovalbumin (Sigma, A5503) and 0.1% (v/v) Pluronic F-68 (Gibco, 24040-032) either with HSA or without HSA (Sigma, A9511).
Frozen stocks of hGLP-1R BHK CRE-Luc cells were thawed in a 37° C. water bath, washed once in PBS (Gibco 14190-094) and diluted to 1.5×10^6 (1.5E+6) cells/mL in assay buffer with or without 2% (w/v) HSA (Sigma, A9511). […] The assay plates were incubated for 3 hours at 37° C. in 5% CO2, left at room temperature for 5 minutes after which 100 μL steadylite Plus™ (PerkinElmer/Revvity, 6066759) was added to each well. Plates were sealed and incubated at room temperature with gentle shaking for 30 minutes while protected from light. Luminescence was detected on a luminescence plate reader e.g., a Synergy 2 (BioTek).

| Substance | EC50 [nM] |
| --- | --- |
| H[Aib]HGTFTSDYSILLEEQAAREFIEWLLAGGPSK([γGlu-C18 diacid])GAPPPSGGGEASHLSTAQTARLSAELHRLADLPRTETGSGSP-NH2 [Compound 112] | 0.336 |
| H[Aib]HGTFTSDYSILLEEQAAREFIEWLLAGGPSRGAPPPSGGGEASELSTAALGRLSAELHK([AEEA-AEEA-γGlu-C18 diacid])LATLPRTETGSGSP-NH2 [Compound 70] | 0.0184 |
| H[Aib]HGTFTSDYSILLEEQAAREFIEWLLAGGPSRGAPPPSGGGEASHLSTQTQGRLSAELHK([AEEA-AEEA-γGlu-C18 diacid])LATLPRTETGSGSP-NH2 [Compound 71] | 0.0184 |
| H[Aib]HGTFTSDYSILLEEQAAREFIEWLLAGGPSSGAGQAPGQAPGASHLSTAQTARLSAELHK([AEEA-AEEA-γGlu-C18 diacid])LATLPRTETGSGSP-NH2 [Compound 103] | 0.0331 |

same assay, conditions: hGLP-1R Potency, no HSA, EC50, method A, absence of HSA

| Substance | EC50 [nM] |
| --- | --- |
| H[Aib]HGTFTSDYSILLEEQAAREFIEWLLAGGPSK([γGlu-C18 diacid])GAPPPSGGGEASHLSTAQTARLSAELHRLADLPRTETGSGSP-NH2 [Compound 112] | 0.00437 |

same assay, conditions: method A, absence of HSA; read-out: hGLP-1R Potency, no HSA, EC50

| Substance | EC50 [nM] |
| --- | --- |
| H[Aib]HGTFTSDYSILLEEQAAREFIEWLLAGGPSRGAPPPSGGGEASELSTAALGRLSAELHK([AEEA-AEEA-γGlu-C18 diacid])LATLPRTETGSGSP-NH2 [Compound 70] | 0.00348 |
| H[Aib]HGTFTSDYSILLEEQAAREFIEWLLAGGPSRGAPPPSGGGEASHLSTQTQGRLSAELHK([AEEA-AEEA-γGlu-C18 diacid])LATLPRTETGSGSP-NH2 [Compound 71] | 0.00334 |
| H[Aib]HGTFTSDYSILLEEQAAREFIEWLLAGGPSSGAGQAPGQAPGASHLSTAQTARLSAELHK([AEEA-AEEA-γGlu-C18 diacid])LATLPRTETGSGSP-NH2 [Compound 103] | 0.00524 |

target: T2, human amylin receptor (hAMYR3) (Homo sapiens, UniProt O60896+P30988); assay: Amylin receptor assay, method A (CRE-luciferase reporter, BHK cells); type: cell-based; details: hAMYR3 Potency, 1% HSA, EC50, method A, in the presence of 1% HSA
T2 construct: host or cells: BHK cells (Hollex-1 line expressing hCTR(a) and CRE-Luc), further transfected with human RAMP3
T2 sequence (P30988 25-474): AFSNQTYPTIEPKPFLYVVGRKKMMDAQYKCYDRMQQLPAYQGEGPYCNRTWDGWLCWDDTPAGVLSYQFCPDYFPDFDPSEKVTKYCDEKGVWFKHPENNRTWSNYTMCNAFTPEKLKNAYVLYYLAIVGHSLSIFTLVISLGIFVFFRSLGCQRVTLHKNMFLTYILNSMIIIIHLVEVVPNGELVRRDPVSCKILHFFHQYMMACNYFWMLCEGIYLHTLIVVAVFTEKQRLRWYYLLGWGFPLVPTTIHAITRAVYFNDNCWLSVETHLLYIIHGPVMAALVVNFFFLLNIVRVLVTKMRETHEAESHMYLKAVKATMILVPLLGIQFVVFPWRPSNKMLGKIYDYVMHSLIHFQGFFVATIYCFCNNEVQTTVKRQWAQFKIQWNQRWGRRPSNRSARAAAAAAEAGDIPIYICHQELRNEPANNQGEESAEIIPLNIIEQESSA
T2 sequence (O60896 24-148): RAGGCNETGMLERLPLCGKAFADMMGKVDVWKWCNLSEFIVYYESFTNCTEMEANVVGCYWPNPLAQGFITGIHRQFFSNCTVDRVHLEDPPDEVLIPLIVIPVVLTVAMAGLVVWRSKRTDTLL
Procedure: as §1
It is thus possible to measure hAMYR3 activity using a CRE-luciferase reporter gene introduced into Baby Hamster Kidney (BHK) cells co-expressing the hAMYR3.
The cell line was further transfected with human receptor modifying protein 3 (RAMP3) using standard methods.
After centrifugation, the cell pellet was resuspended and diluted to approximately 2.5-4.0×10^6 (2.5E+6 to 4.0E+6) cells/mL in Recovery™ Cell Culture Freezing Medium (Gibco, 12648-010). Cells were aliquoted and stored at −180° C. until use.
as §2, with “15630-056) and” for “15630-056),”, “either with or without” for “and”, “24040-032) and” for “24040-032)”, “with” for “with HSA”
The plate was incubated over night at 37° C. in 5% CO2. […] Luminescence was detected on a luminescence plate reader e.g., a Synergy 2 (BioTek).

| Substance | EC50 [nM] |
| --- | --- |
| H[Aib]HGTFTSDYSILLEEQAAREFIEWLLAGGPSK([γGlu-C18 diacid])GAPPPSGGGEASHLSTAQTARLSAELHRLADLPRTETGSGSP-NH2 [Compound 112] | 0.269 |
| H[Aib]HGTFTSDYSILLEEQAAREFIEWLLAGGPSRGAPPPSGGGEASELSTAALGRLSAELHK([AEEA-AEEA-γGlu-C18 diacid])LATLPRTETGSGSP-NH2 [Compound 70] | 0.0594 |
| H[Aib]HGTFTSDYSILLEEQAAREFIEWLLAGGPSRGAPPPSGGGEASHLSTQTQGRLSAELHK([AEEA-AEEA-γGlu-C18 diacid])LATLPRTETGSGSP-NH2 [Compound 71] | 0.274 |
| H[Aib]HGTFTSDYSILLEEQAAREFIEWLLAGGPSSGAGQAPGQAPGASHLSTAQTARLSAELHK([AEEA-AEEA-γGlu-C18 diacid])LATLPRTETGSGSP-NH2 [Compound 103] | 0.0736 |

same assay, conditions: hAMYR3 Potency, no HSA, EC50, method A, absence of HSA

| Substance | EC50 [nM] |
| --- | --- |
| H[Aib]HGTFTSDYSILLEEQAAREFIEWLLAGGPSK([γGlu-C18 diacid])GAPPPSGGGEASHLSTAQTARLSAELHRLADLPRTETGSGSP-NH2 [Compound 112] | 0.00365 |

same assay, conditions: method A, absence of HSA; read-out: hAMYR3 Potency, no HSA, EC50

| Substance | EC50 [nM] |
| --- | --- |
| H[Aib]HGTFTSDYSILLEEQAAREFIEWLLAGGPSRGAPPPSGGGEASELSTAALGRLSAELHK([AEEA-AEEA-γGlu-C18 diacid])LATLPRTETGSGSP-NH2 [Compound 70] | 0.00453 |
| H[Aib]HGTFTSDYSILLEEQAAREFIEWLLAGGPSRGAPPPSGGGEASHLSTQTQGRLSAELHK([AEEA-AEEA-γGlu-C18 diacid])LATLPRTETGSGSP-NH2 [Compound 71] | 0.00866 |
| H[Aib]HGTFTSDYSILLEEQAAREFIEWLLAGGPSSGAGQAPGQAPGASHLSTAQTARLSAELHK([AEEA-AEEA-γGlu-C18 diacid])LATLPRTETGSGSP-NH2 [Compound 103] | 0.00242 |

target: T3, human GIP receptor (hGIPR) (Homo sapiens, UniProt P48546); assay: GIP receptor assay, method A (CRE-luciferase reporter, BHK cells); type: cell-based; details: hGIPR Potency, 1% HSA, EC50, method A, in the presence of 1% HSA
T3 construct: expressed in transfected cells
T3 sequence (P48546 22-466): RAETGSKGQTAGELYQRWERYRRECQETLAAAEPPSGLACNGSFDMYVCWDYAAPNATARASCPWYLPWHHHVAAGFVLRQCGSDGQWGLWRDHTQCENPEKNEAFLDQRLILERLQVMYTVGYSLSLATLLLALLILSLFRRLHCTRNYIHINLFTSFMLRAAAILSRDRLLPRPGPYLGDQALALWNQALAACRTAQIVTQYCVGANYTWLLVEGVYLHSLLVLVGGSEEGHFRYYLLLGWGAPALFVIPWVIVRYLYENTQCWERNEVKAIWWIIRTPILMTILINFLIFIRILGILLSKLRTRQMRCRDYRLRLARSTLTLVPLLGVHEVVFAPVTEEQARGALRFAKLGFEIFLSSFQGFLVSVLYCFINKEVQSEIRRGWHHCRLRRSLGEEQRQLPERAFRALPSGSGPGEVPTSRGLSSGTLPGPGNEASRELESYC
Procedure: To assess how the activation of the receptors is potentially influenced by the presence of human serum albumin (HSA), the in vitro assays were performed in the absence of HSA and presence of 1% (w/v) HSA. Unless stated otherwise the reference to the “GIP receptor assay as described in Example 4” throughout the specification shall refer to the described herein assay procedure method A (hGIPR assay) in the absence of HSA.
Activation of the human GIP receptor leads to increased intra-cellular concentrations of cyclic AMP (cAMP) and the consequent transcription activation from promoters containing multiple copies of the cAMP response element (CRE). It is thus possible to measure GIP receptor activity using a CRE-luciferase reporter gene introduced into Baby Hamster Kidney (BHK) cells co-expressing the human GIP receptor.
Cells at about 80-90% confluency were washed once with PBS (Gibco 14190-094) and detached from the cell flasks with Versene (Gibco, 15040-066). After centrifugation, the cells were counted, resuspended and diluted to approximately 1.5-3.0×10^6 (1.5E+6 to 3.0E+6) cells/mL in Recovery Cell Culture Freezing Medium (Gibco, 12648-010) and stored at −180° C. in suitable aliquots until use.
as §2
On the day before the assay hGIPR BHK Cre-Luc cells were thawed and plated out in 96 well Culture Plates (PerkinElmer/Revvity, 6005680) at 5.0×10^3 (5.0E+3) cells/well in growth medium as described above. The plates were then incubated for 21-23 hours at 37° C. with 5% CO2. On the day of the assay GLP-1-/GIP-/amylin-receptor tri-agonists or reference compounds were diluted in assay buffer using a 7-point, 10-fold titration plus a blank (absence of compound). Each compound was diluted and tested in duplicates in each experiment. In the plates containing the cells the growth medium was removed, and cells were washed twice with 100 μL PBS (Gibco 14190-094). 50 μL of the test compound dilutions were added to the plates containing cells preceded by 50 μL assay buffer with or without 2% (w/v) HSA (Sigma, A9511). The cell plates were incubated for 3 hours in a 5% CO2 incubator at 37° C. The plates were then transferred to room temperature followed by addition of 100 μL steadylite Plus™ (PerkinElmer/Revvity, 6066759). The plates were sealed and shaken for 30 minutes at room temperature while protected from light. Finally, luminescence (as an indicator of receptor activation) was measured on a Mithras reader (Berthold Technologies, DE). The EC50-values [pM] were calculated by non-linear curve fitting applying a four-parameter logistic model (Hill slope=“shared value for all datasets”) using GraphPad Prism (GraphPad Software, Boston, MA, USA).

| Substance | EC50 [pM] |
| --- | --- |
| H[Aib]HGTFTSDYSILLEEQAAREFIEWLLAGGPSK([γGlu-C18 diacid])GAPPPSGGGEASHLSTAQTARLSAELHRLADLPRTETGSGSP-NH2 [Compound 112] | 321 |
| H[Aib]HGTFTSDYSILLEEQAAREFIEWLLAGGPSRGAPPPSGGGEASELSTAALGRLSAELHK([AEEA-AEEA-γGlu-C18 diacid])LATLPRTETGSGSP-NH2 [Compound 70] | 19.1 |
| H[Aib]HGTFTSDYSILLEEQAAREFIEWLLAGGPSRGAPPPSGGGEASHLSTQTQGRLSAELHK([AEEA-AEEA-γGlu-C18 diacid])LATLPRTETGSGSP-NH2 [Compound 71] | 9.28 |
| H[Aib]HGTFTSDYSILLEEQAAREFIEWLLAGGPSSGAGQAPGQAPGASHLSTAQTARLSAELHK([AEEA-AEEA-γGlu-C18 diacid])LATLPRTETGSGSP-NH2 [Compound 103] | 13.3 |

same assay, conditions: hGIPR Potency, no HSA, EC50, method A, absence of HSA

| Substance | EC50 [pM] |
| --- | --- |
| H[Aib]HGTFTSDYSILLEEQAAREFIEWLLAGGPSK([γGlu-C18 diacid])GAPPPSGGGEASHLSTAQTARLSAELHRLADLPRTETGSGSP-NH2 [Compound 112] | 2.42 |

same assay, conditions: method A, absence of HSA; read-out: hGIPR Potency, no HSA, EC50

| Substance | EC50 [pM] |
| --- | --- |
| H[Aib]HGTFTSDYSILLEEQAAREFIEWLLAGGPSRGAPPPSGGGEASELSTAALGRLSAELHK([AEEA-AEEA-γGlu-C18 diacid])LATLPRTETGSGSP-NH2 [Compound 70] | 5.89 |
| H[Aib]HGTFTSDYSILLEEQAAREFIEWLLAGGPSRGAPPPSGGGEASHLSTQTQGRLSAELHK([AEEA-AEEA-γGlu-C18 diacid])LATLPRTETGSGSP-NH2 [Compound 71] | 2.77 |
| H[Aib]HGTFTSDYSILLEEQAAREFIEWLLAGGPSSGAGQAPGQAPGASHLSTAQTARLSAELHK([AEEA-AEEA-γGlu-C18 diacid])LATLPRTETGSGSP-NH2 [Compound 103] | 3.14 |
